Assay results taken from a melting point compilation (Tetko et al.; mined from patent text by program, amines drawn as free bases though some values may be those of a salt).

Row | Structure (SMILES) | melting point
1 | O=C1NC(=O)C(=Cc2ccc(-c3ccc(O)c(C45CC6CC(CC(C6)C4)C5)c3)cc2)S1 | 307 to 308 °C
2 | Cc1nonc1-n1cc(C(=O)O)c(=O)c2cc(F)c(Cl)nc21 | 242 to 247 °C
3 | Cc1ccc(Cl)cc1N1C(=O)CON(C)C1=S | 100 to 102 °C
4 | CCN1C(CNC(=O)c2cc(Cl)c(N)cc2OC)CCC1c1ccccc1 (stereo not given) | 187 to 188 °C
5 | O=C1[C@@H]2Cc3ccccc3CN2C(=O)N1c1cc(Cl)cc(Cl)c1 | 243 °C
6 | Cc1nnnn1-c1ccc(/C(=C\C2CCCC2)C(=O)O)cc1Cl | 216 to 219 °C
7 | COc1ccc(C2CN(C)Cc3c(N)cccc32)cc1OC (stereo not given) | 143 to 144 °C
8 | CCOc1ccc(-n2c(C(F)(F)F)nn(C)c2=S)cc1 | 93 to 95 °C
9 | CC(C)(C)C(NC(=O)c1cc(Cl)cc(Cl)c1)Nc1c(Nc2cccnc2Cl)c(=O)c1=O (stereo not given) | 233 to 234 °C
10 | NC(=N[N+](=O)[O-])NCCC[C@@H](NC(=O)C(c1ccccc1)c1ccccc1)C(=O)NCc1ccc(COC(=O)Oc2ccccc2)cc1 | 186 to 187 °C
11 | CCCCCC1CCC(c2ccc(C(=O)O)cc2)CC1 (stereo not given) | 30 °C
12 | S=c1[nH]cnn1C[C@]1(c2ccccc2)O[C@@H]1c1ccc(Cl)c(Cl)c1Cl (relative stereo) | 168 to 171 °C
13 | COc1cc(CC(=O)NCCCc2ccc(C)c(C)c2)ccc1OCCBr | 105 °C
14 | CC(C)c1cc(C(=O)O)sc1C(C)C | 149 to 151 °C
15 | CSC(=C[N+](=O)[O-])NCCSCc1ccco1 | 68 to 70 °C
16 | O=C(c1cccc2nc3n(c12)CCCN3c1ccc(Cl)cc1Cl)C1CC1 | 189 to 190 °C
17 | CC1(C)Cc2sc3c(c2C1)CCNC3=O | 205 to 207 °C
18 | CC(=O)N1CCC(COCc2cc(C(F)(F)F)cc(C(F)(F)F)c2)(c2ccccc2)CC1 | 64 to 65 °C
19 | CCCCCCCCC#Cc1c(F)ccc(C(=O)O)c1F | 117 °C
20 | Cn1cc(-c2cccc(O)c2)c(=O)c(C2CCCCC2)c1 | 155 to 165 °C
21 | N[C@@H](Cc1ccccc1)[C@@H](O)C(F)(F)C(=O)NCc1ccccc1 | 128 to 130 °C
22 | Cn1nc(-c2cnc3[nH]cc(C(=O)NCC4CC4)c3n2)c2ccc(F)cc21 | 319 to 322 °C

Row | Structure (SMILES) | melting point
23 | COc1cn(C)cc(-c2cccc(C(F)(F)F)c2)c1=O | 173 to 175 °C
24 | COc1cc2c(Nc3ccc(Sc4nccn4C)c(Cl)c3)c(C#N)cnc2cc1OCCN1CCC(N2CCCC2)CC1 | 127 to 130 °C
25 | CC(C)c1cc(C(O)(C(F)(F)F)C(F)(F)F)cc(C(C)C)c1NCC(=O)O | 130 to 132 °C
26 | CC(C)[C@@H]1O[C@](C#CC2CC2)(C(F)(F)F)c2cc(Cl)ccc2NC1=O (relative stereo) | 167 °C
27 | CC(=O)S[C@@H](CCN1C(=O)CCC1=O)C(=O)O | 110 to 112 °C
28 | CC(OS(C)(=O)=O)C(=O)O (single isomer, unassigned; (-)) | 65 to 72 °C
29 | NC(=O)Cc1ccc2c(c1)CCc1cccnc1O2 | 164 to 165 °C
30 | CC/C=C\C=C/CCCCCCCCCC=O | 7 to 8 °C
31 | Cc1cnn(Cc2ccc3c(c2)-c2[nH]nc(-c4ccsc4)c2C3)c1 | 262 to 263 °C
32 | CCOC(=O)c1ncn2c1CN(C)C(=O)c1c-2cccc1[N+](=O)[O-] | 212 to 213 °C
33 | CCOC(=O)N1CCN(c2ncc(F)c(SC)n2)CC1 | 110 to 112 °C
34 | Cc1cc2c(-c3ccc(Br)cc3)c(CC(=O)O)c(=O)oc2cc1Cl | 238 to 239 °C
35 | O=C(CCC(F)(F)F)N[C@H]1CC[C@H](CCN2CCC(c3cccc4c3CCO4)CC2)CC1 | 200 °C
36 | CCCc1ccccc1OCCCCCOc1coc(C=O)cc1=O | 95 to 96 °C
37 | Cc1cc(O)c2c(ccc3nc(-c4ccco4)[nH]c32)n1 | 280 to 282 °C
38 | CCCC(=O)OCC(=O)C1(OC(=S)CC)CCC2C3CC(C)C4=CC(=O)C=CC4(C)C3C(O)CC21C (stereo not given) | 126 to 128 °C
39 | O=CN1CCCN2c3ccccc3Cc3ccccc3C2C1 (stereo not given) | 146 to 148 °C
40 | CCCNc1nc(C)c(CCO)c(=O)n1C | 240 °C
41 | CSCC1Cn2cc(C(=O)NCc3ccc(Cl)cc3)c(=O)c3cc(CN4CCOCC4)cc(c32)O1 (stereo not given) | 190 to 191 °C
42 | CNN(NC)C(=O)Nc1cccc2c1C(=O)c1c-2n[nH]c1-c1cc(C)sc1C | 252 °C
43 | Nc1ccc2c(c1)CCC1CC(=O)NN=C21 (stereo not given) | 290 to 291 °C

Further lines, results first:

Row | melting point | Structure (SMILES)
44 | 270 to 273 °C | O=C1CCC(N2Cc3c(OCc4cnc5ccccc5c4)cccc3C2=O)C(=O)N1 (stereo not given)
45 | 136 to 138 °C | Cc1ccc(-n2nc(C(F)(F)F)cc2-c2ccc(S(C)(=O)=O)cc2)cc1Cl
46 | 128 °C | CCOC(=O)c1cc(-c2ccccc2OC)[nH]c1N
47 | 245 to 247 °C | Cc1ccc(-c2nc(C(F)(F)F)nn2-c2ccc(S(N)(=O)=O)cc2)cc1
48 | 94 to 96 °C | CS(=O)(=O)c1ccc(-n2nc(-c3ccc(O)cc3O)c3ccc(O)cc32)cc1
49 | 193 to 194 °C | COC(=O)c1sc(-c2ccc(OCc3ccc([N+](=O)[O-])cc3)c(OC)c2)cc1NC(C)=O
50 | 160 to 162 °C | Cc1ccc(-c2ccc(C(=O)N3Cc4cccn4Cc4ccccc43)cc2)c2ccccc12
51 | 112 to 114 °C | O=C(c1ccc([N+](=O)[O-])cc1Cl)N1CCCCc2ccccc21
52 | 200 to 205 °C | COc1cc2ncnc(NC3=CC(=O)C(c4ccccc4)=CC3=O)c2cc1OC
53 | 86 to 89 °C | CCCNC(=O)c1ccccc1N=C(NC(=O)c1ccccc1)SC
54 | 244 to 246 °C | Cc1cc(=O)c(-c2ccc(Oc3cccc(OC(F)(F)F)c3)cc2)c(C)[nH]1
55 | 75 to 77 °C | CN1CC(c2cccc(OCc3ccc4ccccc4n3)c2)OC1=O (stereo not given)
56 | 107 to 108 °C | COc1cccc(NN=C(Sc2ccc(Cl)cc2)C(C)=O)c1
57 | 101 °C | COc1ccc(-c2cc(C)nc3ccccc23)cc1
58 | 148 to 149 °C | COc1ccccc1C(=O)CN1CCC(=O)C(C(c2ccc(F)cc2)c2ccc(F)cc2)C1 (stereo not given)
59 | 173 to 175 °C | COc1cc([N+](=O)[O-])c2ncc(C)cc2c1
60 | 63 to 64 °C | CC(=NOc1cccc(C(F)(F)F)c1)c1cc(Cl)ccc1NS(=O)(=O)C(F)(F)F
61 | 248 °C | N#Cc1c(N2CCN(C(=O)c3ccco3)CC2)c2cc(F)ccc2n(Cc2ccc(F)cc2)c1=O
62 | 113 to 115 °C | COc1ccc(/C(=C/C=C/C(=O)Oc2ccc([N+](=O)[O-])cc2)c2cccs2)cc1
63 | 219 to 221 °C | O=C(O)COc1ccc2c(-c3ccccc3)noc2c1Cl
64 | 88 to 90 °C | CCOC(=O)C(=O)CC(=O)c1cn(CCCCc2ccccc2)c2ccccc2c1=O
65 | 129 to 131 °C | Cc1cccc(C)c1N(CCCC(=O)O)C(=O)CCCN(C(=O)c1ccc(Cl)cc1)c1c(C)cccc1C
66 | 169 to 172 °C | Cc1cc(C=O)ccc1C(=O)Nc1ncc(Cl)cn1
67 | 134 to 136 °C | CCCCCCc1cc2c(cc1/C=C/c1ccc(C(=O)O)cc1)C(C)(C)CCC2(C)C
68 | 192 to 193 °C | COc1cc(OC)c2cc(-c3ccc([N+](=O)[O-])cc3)oc2c1
69 | 142 °C | Cc1ccc(S(=O)(=O)Oc2ccc3nc(S(N)(=O)=O)sc3c2)cc1
70 | 69 to 72 °C | CC(C)(C)OC(=O)COCCCCCCn1nc(-c2ccccc2)c(-c2ccccc2)c1-c1ccccc1
